Measurements published in patent publication US11059795B2, “Androgen receptor modulators and methods for their use” (ESSA Pharma, Inc., priority 2018, dated 2021).

Key:
Format in all cases: cell-based
[1] = molecular target: T1, LBD of estrogen receptor-α (ERα) fused to DBD of GAL4 (Homo sapiens, UniProt P03372); experiment: LBD-expressing reporter assay (GeneBLAzer), ERα LBD; settings: inhibition of maximal activity attained with agonist; read-out: Steroid Receptor LBD IC50 (μM) ERα
T1 sequence (P03372 311-547 limits assumed): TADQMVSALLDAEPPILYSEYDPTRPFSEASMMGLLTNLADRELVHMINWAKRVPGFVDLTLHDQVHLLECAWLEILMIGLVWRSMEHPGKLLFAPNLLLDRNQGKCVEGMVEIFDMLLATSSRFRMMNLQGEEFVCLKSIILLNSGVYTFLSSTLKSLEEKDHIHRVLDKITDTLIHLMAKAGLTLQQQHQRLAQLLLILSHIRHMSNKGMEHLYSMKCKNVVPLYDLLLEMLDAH
Description: (§1) This assay uses cells that stably express a chimera fusion protein comprising the LBD of a steroid hormone receptor fused to the DNA-binding domain (DBD) of GAL4 along with beta-lactamase reporter under transcriptional control of an upstream activator sequence (UAS). When agonist binds to the LBD of the GAL4 (DBD)-steroid hormone (LBD) chimera fusion protein, the protein binds to the UAS, resulting in expression of beta-lactamase. LBDs of androgen receptor (AR), progesterone receptor-beta (PRβ), glucocorticoid receptor (GR), estrogen receptor-α (ERα), and estrogen receptor-β (ERβ) were tested and IC50s calculated for inhibiting maximal activity attained with agonist.

[2] = molecular target: T2, LBD of glucocorticoid receptor (GR) fused to DBD of GAL4 (Homo sapiens, UniProt P04150); experiment: LBD-expressing reporter assay (GeneBLAzer), GR LBD; settings: inhibition of maximal activity attained with agonist; read-out: Steroid Receptor LBD IC50 (μM) GR
T2 sequence (P04150 524-758 limits assumed): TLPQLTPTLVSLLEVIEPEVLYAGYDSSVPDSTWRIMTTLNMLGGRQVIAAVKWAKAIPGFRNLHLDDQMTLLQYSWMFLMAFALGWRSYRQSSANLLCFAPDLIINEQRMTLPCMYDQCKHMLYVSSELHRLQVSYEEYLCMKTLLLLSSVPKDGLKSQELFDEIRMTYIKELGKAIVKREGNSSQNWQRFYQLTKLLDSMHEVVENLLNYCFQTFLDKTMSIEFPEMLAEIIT
Description: as §1

[3] = molecular target: LBD of estrogen receptor-β (ERβ) fused to DBD of GAL4 (Homo sapiens, UniProt Q92731); experiment: LBD-expressing reporter assay (GeneBLAzer), ERβ LBD; settings: inhibition of maximal activity attained with agonist; read-out: Steroid Receptor LBD IC50 (μM) ERβ
LBD of estrogen receptor-β (ERβ) fused to DBD of GAL4, sequence (Q92731 264-498 limits assumed): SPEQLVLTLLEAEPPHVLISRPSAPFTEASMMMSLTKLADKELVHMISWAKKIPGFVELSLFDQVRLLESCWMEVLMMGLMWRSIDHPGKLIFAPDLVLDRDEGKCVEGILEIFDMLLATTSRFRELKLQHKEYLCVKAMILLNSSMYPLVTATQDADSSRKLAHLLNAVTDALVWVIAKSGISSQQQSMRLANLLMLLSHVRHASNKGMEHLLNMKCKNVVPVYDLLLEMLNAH
Description: as §1, with “To assess if the representative compounds (Compounds A13, A28, A38, A74, A93, and A109) compete with ligand (agonist) for the ligand-binding domain (LBD) of steroid hormone receptors (which would be off-target), the GeneBLAzer assay was employed (Thermo Fisher). This” for “This”

[4] = molecular target: T3, LBD of progesterone receptor-beta (PRβ) fused to DBD of GAL4 (Homo sapiens, UniProt P06401); experiment: LBD-expressing reporter assay (GeneBLAzer), PR LBD; settings: inhibition of maximal activity attained with agonist; read-out: Steroid Receptor LBD IC50 (μM) PR
T3 sequence (P06401 679-913 limits assumed): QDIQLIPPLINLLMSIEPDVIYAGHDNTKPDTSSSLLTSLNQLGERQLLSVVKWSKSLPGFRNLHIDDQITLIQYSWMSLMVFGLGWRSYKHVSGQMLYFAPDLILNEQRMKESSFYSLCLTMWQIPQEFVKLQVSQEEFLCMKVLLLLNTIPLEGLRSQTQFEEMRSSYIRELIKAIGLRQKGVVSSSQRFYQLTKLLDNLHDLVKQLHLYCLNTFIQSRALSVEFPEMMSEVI
Description: as §1

[5] = molecular target: T4, LBD of androgen receptor (AR) fused to DBD of GAL4 (Homo sapiens, UniProt P10275); experiment: LBD-expressing reporter assay (GeneBLAzer), AR LBD; settings: inhibition of maximal activity attained with agonist; read-out: Steroid Receptor LBD IC50 (μM) AR
T4 sequence (P10275 669-900 limits assumed): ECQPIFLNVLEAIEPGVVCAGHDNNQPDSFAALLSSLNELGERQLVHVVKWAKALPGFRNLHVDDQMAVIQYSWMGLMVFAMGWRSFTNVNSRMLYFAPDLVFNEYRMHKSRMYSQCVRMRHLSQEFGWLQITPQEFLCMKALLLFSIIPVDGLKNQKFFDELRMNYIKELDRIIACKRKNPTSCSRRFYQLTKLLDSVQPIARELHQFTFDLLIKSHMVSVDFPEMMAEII
Description: as §1

IC50 [1] [µM]	IC50 [2] [µM]	IC50 [3] [µM]	IC50 [4] [µM]	IC50 [5] [µM]	Structure (SMILES)
> 10	> 10	> 10	0.97	> 10	CC(C)(c1ccc(OCc2ocnc2S(C)(=O)=O)cc1)c1cc(Cl)c(OCCCl)c(Cl)c1 [Compound A13, 5-((4-(2-(3,5-dichloro-4-(2-chloroethoxy)phenyl)propan-2-yl)phenoxy)methyl)-4-(methylsulfonyl)oxazole]
> 10	> 10	> 10	5.07	> 10	CC(C)(c1ccc(OCc2coc(NS(C)(=O)=O)n2)cc1)c1cc(Cl)c(OCCCl)c(Cl)c1 [Compound A38, N-(4-((4-(2-(3,5-dichloro-4-(2-chloroethoxy)phenyl)propan-2-yl)phenoxy)methyl)oxazol-2-yl)methanesulfonamide]

Second part, the molecule before the results:

Structure (SMILES)	IC50 [1] [µM]	IC50 [2] [µM]	IC50 [3] [µM]	IC50 [4] [µM]	IC50 [5] [µM]
CC(C)(c1ccc(OCc2ncc(S(C)(=O)=O)s2)cc1)c1cc(Cl)c(OCCCl)c(C#N)c1 [Compound A93, 3-chloro-2-(2-chloroethoxy)-5-(2-(4-((5-(methylsulfonyl)thiazol-2-yl)methoxy)phenyl)propan-2-yl)benzonitrile]	> 10	> 10	> 10	5.04	> 10
CC(C)(c1ccc(OCc2ccnc(NS(C)(=O)=O)n2)cc1)c1cc(Cl)c(OCCCl)c(C#N)c1 [Compound A109, N-(4-((4-(2-(3-chloro-4-(2-chloroethoxy)-5-cyanophenyl)propan-2-yl)phenoxy)methyl)pyrimidin-2-yl)methanesulfonamide]	> 10	> 10	> 10	5.61	> 10
CC(C)(c1ccc(OC[C@H](O)CNS(C)(=O)=O)cc1)c1cc(Cl)c(OC[C@H](O)CCl)c(Cl)c1 [X, reference compound]	5.82	> 10	7.37	4.96	9.83
CC(C)(c1ccc(OCc2ccnc(NS(C)(=O)=O)n2)cc1)c1cc(Cl)c(OCCCl)c(Cl)c1 [Compound A74, N-(4-((4-(2-(3,5-dichloro-4-(2-chloroethoxy)phenyl)propan-2-yl)phenoxy)methyl)pyrimidin-2-yl)methanesulfonamide]	> 10	9.51	> 10	5.41	> 10
CC(C)(c1ccc(OCc2ocnc2S(C)(=O)=O)cc1)c1cc(Cl)c(OCCCl)c(C#N)c1 [Compound A28, 3-chloro-2-(2-chloroethoxy)-5-(2-(4-((4-(methylsulfonyl)oxazol-5-yl)methoxy)phenyl)propan-2-yl)benzonitrile]	> 10	> 10	> 10	0.93	> 10
